{"source": "paper PMC10144058", "about": "“New Hybrid Scaffolds Based on 5-FU/Curcumin: Synthesis, Cytotoxic, Antiproliferative and Pro-Apoptotic Effect” (Pharmaceutics, 2023)", "key": {"SW620 cells": {"test_system": "SW620 cells", "assay": "Cell cycle analysis (PI, flow cytometry)", "assay_type": "cell-based, human", "settings": "SW620, treated with IC50 value, 48 h", "protocol": "(§1) The method used for the recognition of cell cycle phases (G0/G1, S, G2/M) was based on staining with a fluorescent dye (propidium iodide—PI), as a direct relationship between fluorescence intensity and DNA content can be established. For this method, 250,000 cells/well were initially seeded in 6-well culture plates with an adherence period of 24 h at 37 °C in a 5% CO2 atmosphere. […] After treatment, cells were obtained by mechanical disaggregation, and the cell pellet was centrifuged and washed with a versene buffer. The cell pellet was fixed with 1.8 mL of cold 70% ethanol and kept at 4 °C overnight. Subsequently, two washes with a versene buffer were performed, and the pellet was resuspended in 300 µL of PBS containing 0.25 mg/mL of RNAsa and 0.1 mg/mL of PI. After a 30 min period of dark incubation, the fluorescence of 10,000 cells was analyzed using a FACS Canto II flow cytometer. The PI signal was analyzed with excitation at 488 nm using a sapphire laser, and fluorescence was detected at 610 nm. The data analysis was performed with FlowJo 10.8.1 software."}, "SW480 cells": {"test_system": "SW480 cells", "assay": "Cell cycle analysis (PI, flow cytometry)", "assay_type": "cell-based, human", "settings": "SW480, treated with IC50 value, 48 h", "protocol": "as §1"}}}
{"compound": "COc1cc(/C=C/C(=O)c2ccc(OCCCCCn3cc(Cn4cc(F)c(=O)[nH]c4=O)nn3)cc2)ccc1O", "note": "[Compound 6d, (E)-5-fluoro-1-((1-(5-(4-(3-(4-hydroxy-3-methoxyphenyl)acryloyl)phenoxy)pentyl)-1H-1,2,3-triazol-4-yl)methyl)pyrimidine-2,4(1H,3H)-dione]", "values": [{"measurement": "Cell cycle distribution, G0/G1", "setting": "SW620 cells", "result": 4.4, "unit": "%"}, {"measurement": "Cell cycle distribution, G2/M", "setting": "SW620 cells", "result": 11.0, "unit": "%"}, {"measurement": "Cell cycle distribution, S Phase", "setting": "SW620 cells", "result": 24.7, "unit": "%"}, {"measurement": "Cell cycle distribution, G0/G1", "setting": "SW480 cells", "result": 42.9, "unit": "%"}, {"measurement": "Cell cycle distribution, G2/M", "setting": "SW480 cells", "result": 10.1, "unit": "%"}, {"measurement": "Cell cycle distribution, S Phase", "setting": "SW480 cells", "result": 20.0, "unit": "%"}, {"measurement": "Cell cycle distribution, Sub G0/G1", "setting": "SW480 cells", "result": 24.1, "unit": "%"}]}
